In US9817000B2, “Method for identifying compounds that modulate a T2R taste receptor” (The Regents of the University of California, priority 1999, dated 2017):

Columns and labels:
hT2R4 = biological target: T1, hT2R4 (Homo sapiens, UniProt Q9NYW5); test: FURA-2 [Ca2+]i imaging in HEK-293 cells expressing Gα15 and rho-hT2R4; assay type: cell-based; settings: for [Ca2+]i response (FURA-2): 1.5 mM denatonium
T1 construct: Full-length hT2Rs were isolated by PCR amplification of genomic DNA; expressed in transfected cells; host or cells: HEK-293 cells (PEAKrapid) expressing Gα15
T1 sequence (Q9NYW5 1-299): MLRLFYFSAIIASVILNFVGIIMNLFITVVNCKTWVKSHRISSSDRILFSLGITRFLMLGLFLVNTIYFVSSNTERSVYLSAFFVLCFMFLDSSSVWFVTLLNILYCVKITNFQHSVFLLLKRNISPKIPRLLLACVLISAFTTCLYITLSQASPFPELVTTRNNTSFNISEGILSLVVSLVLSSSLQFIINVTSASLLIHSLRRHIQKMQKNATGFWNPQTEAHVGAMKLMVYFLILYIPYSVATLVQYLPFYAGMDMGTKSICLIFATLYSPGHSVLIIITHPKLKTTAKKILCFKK
Excerpt: (§1) In this system, receptor activation leads to increases in intracellular calcium [Ca2+]i, which can be monitored at the single cell level using the FURA-2 calcium-indicator dye (Tsien et al., Cell Calcium 6:145-157 (1985)). To test and optimize Gα15 coupling, two different GPCRs, a Gαi-coupled μ-opioid receptor (Reisine, Neuropharm. 34:463-472 (1995)) and a Gαq-coupled mGluR1 receptor (Masu et al., Nature 349:760-765 (1991)), were used. Transfection of these receptors into HEK-293 cell produced robust, agonist-selective, and Gα15-dependent Ca^2+ responses (FIG. 1).
(§2) A number of studies have shown that many GPCRs, in particular sensory receptors, require specific “chaperones” for maturation and targeting through the secretory pathway (Baker et al., Embo J 13:4886-4895 (1994); Dwyer et al., Cell 93:455-466 (1998)). Recently, Krautwurst et al. (Cell 95:917-926 (1998)) generated chimeric receptors consisting of the first 20 amino acids of rhodopsin and various rodent olfactory receptors. These were targeted to the plasma membrane and functioned as odorant receptors in HEK-293 cells. To determine whether rhodopsin sequences can also help target T2Rs to the plasma membra, rhodopsin-T2R chimeras (rho-T2Rs) were constructed. […] Similar results were obtained with 11 human and 16 rodent T2Rs (see below). To further enhance the level of T2R expression, rho-T2Rs were placed under the control of a strong EF-1α promoter, and introduced as episomal plasmids into modified HEK-293 cells expressing Gα15 (pEAKrapid cells).
(§3) A bridge overlap PCR extension technique was used to generate rho-T2R chimeras, which contain the first 39 amino acids of bovine rhodopsin in frame with human and rodent T2R coding sequences (Mehta and Singh, Biotechniques 26:1082-1086 (1999). All receptors were cloned into a pEAK10 mammalian expression vector (Edge Biosystems, MD). Modified HEK-293 cells (PEAK^rapid cells; Edge BioSystems, MD) were grown and maintained at 37° C. in UltraCulture medium (Bio Whittaker) supplemented with 5% fetal bovine serum, 100 μg/ml Gentamycin sulphate (Fisher), 1 μg/ml Amphotericin B and 2 mM GlutaMax I (Lifetechnologies). For transfection, cells were seeded onto matrigel coated 24-well culture plates or 35 mm recording chambers. After 24 h at 37° C., cells were washed in OptiMEM medium (Lifetechnologies) and transfected using LipofectAMINE reagent (Lifetechnologies). Transfection efficiencies were estimated by co-transfection of a GFP reporter plasmid, and were typically >70%. Immunofluoresence staining, and activity assays were performed 36-48 h after transfection.
(§4) Transfected cells were washed once in Hank's balanced salt solution with 1 mM sodium pyruvate and 10 mM HEPES, pH 7.4 (assay buffer), and loaded with 2 μM FURA-2 AM (Molecular Probes) for 1 h at room temperature. The loading solution was removed and cells were incubated in 200 μl of assay buffer for 1 h to allow the cleavage of the AM ester. For most experiments, 24-well tissue culture plates containing cells expressing a single rho-T2R were stimulated with 200 μl of a 2× tastant solution (see next section). [Ca^2+]i changes were monitored using a Nikon Diaphot 200 microscope equipped with a 10×/0.5 fluor objective with the TILL imaging system (T.I.L.L Photonics GmbH). Acquisition and analysis of the fluorescence images used TILL-Vision software. Generally, [Ca^2+]i was measured for 80-120 s by sequentially illuminating cells for 200 ms at 340 nm and 380 nm and monitoring the fluorescence emission at 510 nm using a cooled CCD camera. The F340/F380 ratio was analyzed to measure [Ca^2+]i.
Kinetics of activation and deactivation were measured using a bath perfusion system. Cells were seeded onto a 150 μl microperfusion chamber, and test solutions were pressure-ejected with a picospritzer apparatus (General Valve, Inc.). Flow-rate was adjusted to ensure complete exchange of the bath solution within 4-5 s. […]

mT2R8 = biological target: T2, mT2R8 (Mus musculus, UniProt Q9JKT3); test: FURA-2 [Ca2+]i imaging in HEK-293 cells expressing Gα15 and rho-mT2R8; assay type: cell-based; settings: for [Ca2+]i response (FURA-2): 1.5 mM denatonium
T2 construct: expressed in transfected cells; host or cells: HEK-293 cells (PEAKrapid) expressing Gα15
T2 sequence (Q9JKT3 1-297): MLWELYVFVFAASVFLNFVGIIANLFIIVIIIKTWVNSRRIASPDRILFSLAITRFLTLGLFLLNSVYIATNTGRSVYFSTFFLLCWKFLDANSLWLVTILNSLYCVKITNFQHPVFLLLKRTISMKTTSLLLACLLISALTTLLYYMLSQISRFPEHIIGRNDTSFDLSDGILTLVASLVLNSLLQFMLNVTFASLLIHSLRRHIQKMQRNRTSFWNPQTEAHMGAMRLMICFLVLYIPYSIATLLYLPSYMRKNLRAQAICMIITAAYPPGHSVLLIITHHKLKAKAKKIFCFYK
Excerpt: as §1, §2, §3
as §4, with “For most experiments, 24-well tissue culture plates containing cells expressing a single rho-T2R were stimulated with 200 μl of a 2× tastant solution (see next section).” left out
Kinetics of activation and deactivation were measured using a bath perfusion system. […]

[1] = concentrations as in FIG. 4 (denatonium 5 mM)

- [Ca2+]i response (FURA-2) (hT2R4; absence of Gα15): No increase in [Ca2+]i
- [Ca2+]i response (FURA-2) (hT2R4; with Gα15): robust Gα15 dependent responses
- increase in [Ca2+]i on tastant stimulation (hT2R4; [1]): increase in [Ca2+]i could be induced
- threshold of dose-dependent response (hT2R4; in µM): ~100
- receptor activation (mT2R8): activated
- [Ca2+]i response (FURA-2) (mT2R8; absence of Gα15): No increase in [Ca2+]i
- [Ca2+]i response (FURA-2) (mT2R8; with Gα15): robust Gα15 dependent responses
- increase in [Ca2+]i on tastant stimulation (mT2R8; [1]): increase in [Ca2+]i could be induced
SMILES: CC[N+](CC)(CC(=O)Nc1c(C)cccc1C)Cc1ccccc1 [denatonium]
- [Ca2+]i response (hT2R4): significant transient increase in [Ca2+]i
